In patent US5359135A, “Triasulfurone compounds” (priority 1990, dated 1994):

Experiments:
Assay type in all cases: binding, mouse (Balb/c)
Details in all cases: for Cross-reactivity: (triasulfurone conc. for 50% inhibition/analog conc. for 50% inhibition) × 100
MAb 4147-19-4 = assay: competitive ELISA, triasulfurone and analogs with MAb 4147-19-4 (Table 1)
Description: (§1) As defined within the context of this invention, the percentage of cross-reactivity is represented by the following equation: [triasulfurone concentration for 50% inhibition (I50)/concentration of the triasulfurone analogs for 50% inhibition (I50)]×100.
(§2) The I50 value can be determined, for example, by means of a competitive ELISA assay (see Example 8). In that case the I50 value corresponds, for example, to the antigen concentration that leads to a 50% inhibition of the binding of the antibody to the carrier-bound antigen.
(§3) The detection of triasulfurone is effected by means of a two-step competitive ELISA test.
(§4) BSA-conjugated hapten, prepared in accordance with Example 1.3.1 or 1.3.2, in a 50mM sodium carbonate buffer (pH 9.6) (200 ng of BSA-conjugated hapten/100 μl of sodium carbonate buffer) is first of all adsorbed on microtitre plates (for example Dynatech, type M 129A) and incubated overnight at a temperature of 4° C. The plates are then washed five times with PBS buffer enriched with 0.1% (v/v) polysorbate 20 (Tween 20) (PBS Tween).
(§5) The remaining free binding sites of the solid carder material are then blocked by the addition of PBS-BSA in the form of a 1% (w/v) solution. After incubation for two hours at 22° C. the plates are washed again with PBS Tween (0.1%).
(§6) 50 μl of the supernatant of the previously cloned hybridoma cells (in a dilution of 1:2000 or 1:4000) or 50 μl of the previously purified monoclonal antibodies (40-120 ng/ml) are incubated a) with 950 μl of a standard solution containing an increasing amount of triasulfurone or of triasulfurone analogs, b) with triasulfurone-containing water samples or c) with triasulfurone-containing soil extracts. [All dilutions are carried out in PBS Tween (0.1%)].
(§7) After an incubation period of 1 hour at room temperature (22° C.), 200 μl of the antigen/antibody mixture are added to each well in the microtitre plate and the whole batch is incubated for a further one hour. The wells are then washed five times with PBS Tween (0.1%) and charged with 100 μl/well of goat anti-mouse IgG antibody that is conjugated to alkaline phosphatase (dilution 1:1500), and incubated for a period of 1.5 hours.
(§8) After washing again, 150 μl/well of the substrate p-nitrophenyl phosphate dissolved in 1 mg/ml of diethanolamine buffer ([…], pH 9.8, enriched with 0.5 mM MgCl2 ×6H2 O) are added to the wells.
(§9) The intensity of the colour reaction that has occurred is determined at a wavelength of 405 nm. […] All the samples are determined in triplicate.
(§10) In order to determine the amount of triasulfurone present in a sample, first of all a calibration curve is produced (FIG. 1), B/Bo×100 being plotted against the concentration of inhibitor. (Bo represents the absorption capacity measured without the addition of a triasulfurone inhibitor to the antibody, and B is the absorption capacity when triasulfurone inhibitors at various concentrations are added). The I50 value indicates the concentration of the antigen at which the binding of antibody to the solid phase is inhibited by 50%. The I50 value is determined using an ENZFITTER (Leatherbarrow, Elsevier-Biosoft) curve-calculation program based on a four-parameter logistical curve (Raab GM, 1983) and specially adapted to the prevailing conditions. The quantitative determination of triasulfurone in soil or water samples within the context of ELISA is also carried out using the ENZFITTER program, the adaptation of the curve being based on standards that run on any microtitre plate.

MAb 4149-1-1 = assay: competitive ELISA, triasulfurone and analogs with MAb 4149-1-1 (Table 1)
Description: as §1, §2, §3, §4, §5, §6, §7, §8, §9, §10

MAb 4134-40-1 = assay: competitive ELISA, triasulfurone and analogs with MAb 4134-40-1 (Table 1)
Description: as §1, §2, §3, §4, §5, §6, §7, §8, §9, §10

| SMILES | I50 (inhibitor concentration that reduces the ELISA signal by 50% in comparison to the control) (MAb 4147-19-4) [ng/mL] | Cross-reactivity (MAb 4147-19-4) [%] | I50 (inhibitor concentration that reduces the ELISA signal by 50% in comparison to the control) (MAb 4149-1-1) [ng/mL] | Cross-reactivity (MAb 4149-1-1) [%] | I50 (inhibitor concentration that reduces the ELISA signal by 50% in comparison to the control) (MAb 4134-40-1) [ng/mL] | Cross-reactivity (MAb 4134-40-1) [%] |
| --- | --- | --- | --- | --- | --- | --- |
| NS(=O)(=O)c1cc(O)ccc1OCCCl [E] | > 1000 | < 0.01 | > 1000 | < 0.01 | > 1000 | < 0.7 |
| COC(=O)c1ccccc1S(=O)(=O)NC(=O)Nc1nc(C)cc(C)n1 [J, sulfometurone-methyl] | > 1000 | < 0.01 | > 1000 | < 0.01 | > 1000 | < 0.7 |
